For one assay, the system named is HeLa cells. As to the kind of experiment: Cellular SENP inhibition: SUMOylated proteins in HeLa cells by Western blot. The format is cell-based. The following applies: increasing concentrations, 48 h. (Immunoblotting shows a protein as a band on a membrane.)
A further assay has as its target T1, SENP7 (Homo sapiens, UniProt Q9BQF6).
T1 sequence (Q9BQF6 760-1050 limits assumed): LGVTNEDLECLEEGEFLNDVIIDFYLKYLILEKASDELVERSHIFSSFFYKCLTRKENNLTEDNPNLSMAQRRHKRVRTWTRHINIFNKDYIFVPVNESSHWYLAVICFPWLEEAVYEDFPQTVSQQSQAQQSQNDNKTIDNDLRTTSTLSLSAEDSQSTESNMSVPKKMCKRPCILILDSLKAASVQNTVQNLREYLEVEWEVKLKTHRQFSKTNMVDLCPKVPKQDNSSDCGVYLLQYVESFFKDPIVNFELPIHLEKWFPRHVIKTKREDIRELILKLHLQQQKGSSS
As to the kind of experiment: DUB-Glo bioluminescent peptide substrate assay, SENP7. It counts as biochemical. The following applies: read-out: SENP7 IC50.

Another assay addresses T2, SENP2 (Homo sapiens, UniProt Q9HC62).
T2 sequence (Q9HC62 364-589): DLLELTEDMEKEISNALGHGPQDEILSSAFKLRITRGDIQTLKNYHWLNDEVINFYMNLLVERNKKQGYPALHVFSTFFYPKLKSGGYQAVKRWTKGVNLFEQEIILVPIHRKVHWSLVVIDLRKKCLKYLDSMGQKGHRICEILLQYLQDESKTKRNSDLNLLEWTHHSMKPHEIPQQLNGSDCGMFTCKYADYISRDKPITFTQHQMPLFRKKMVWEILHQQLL
As to the kind of experiment: DUB-Glo bioluminescent peptide substrate assay, SENP2. The conditions noted are these: read-out: SENP2 IC50. The format is biochemical.

This note sets out measurements from PMC3840147 (ACS chemical biology, 2013).

Molecules are shown by their SMILES.

Regarding `Nc1ccc2ccccc2c1N=Nc1ccc(/C=C/c2ccc(N=Nc3c(N)ccc4ccccc34)cc2S(=O)(=O)O)c(S(=O)(=O)O)c1` [SPI-01], in the assay on HeLa cells, the “accumulation of SUMO-1 conjugates in cells” value was “less significant effects”; the “accumulation of SUMO-2/3 conjugates in cells” value is “SUMO-2/3 conjugates accumulated in cells and this accumulation correlated with inhibitor concentration”.

For orientation: IC50 means the midpoint of a concentration-inhibition curve. For `Nc1c(N=Nc2ccccc2)cc(S(=O)(=O)O)c2ccccc12` [SPI-08], at SENP7, the IC50 is 2800 ± 1600 nM.

For the compound `Nc1ccc2cc(S(=O)(=O)O)cc(S(=O)(=O)O)c2c1N=Nc1ccc(S(=O)(=O)O)cc1` [SPI-09], the half-maximal inhibitory concentration (IC50) on SENP7 was found to be 1900 ± 2100 nM.

As for `Cc1cc(N)ccc1/N=N/c1cc(S(=O)(=O)O)c2cccc(S(=O)(=O)O)c2c1` [SPI-07], the results for the IC50 at SENP7 and on SENP2 were 1900 ± 2200 nM and over 60000 nM, respectively.
